# Reference: patent publication US8791132B2, “Compounds and methods for treatment of hypertension” (Medivation Technologies, Inc., priority 2011, dated 2014)
# Several values for one entry are separate records, joined by “and”; a condition that tells them apart may be missing. Identical values can stand only once. Like-named read-outs stand apart in the source and are kept apart here.
# Experiments:
# [1] = target: T1, human recombinant adrenergic α1D receptor (Homo sapiens, UniProt P25100); experiment: Radioligand binding, adrenergic α1D ([3H]Prazosin); conditions: for Percentage inhibition of ligand binding, Adrenergic α1D: 0.1 µM
# T1 construct: expressed in transfected cells; host or cells: HEK-293
# T1 sequence (P25100 1-572): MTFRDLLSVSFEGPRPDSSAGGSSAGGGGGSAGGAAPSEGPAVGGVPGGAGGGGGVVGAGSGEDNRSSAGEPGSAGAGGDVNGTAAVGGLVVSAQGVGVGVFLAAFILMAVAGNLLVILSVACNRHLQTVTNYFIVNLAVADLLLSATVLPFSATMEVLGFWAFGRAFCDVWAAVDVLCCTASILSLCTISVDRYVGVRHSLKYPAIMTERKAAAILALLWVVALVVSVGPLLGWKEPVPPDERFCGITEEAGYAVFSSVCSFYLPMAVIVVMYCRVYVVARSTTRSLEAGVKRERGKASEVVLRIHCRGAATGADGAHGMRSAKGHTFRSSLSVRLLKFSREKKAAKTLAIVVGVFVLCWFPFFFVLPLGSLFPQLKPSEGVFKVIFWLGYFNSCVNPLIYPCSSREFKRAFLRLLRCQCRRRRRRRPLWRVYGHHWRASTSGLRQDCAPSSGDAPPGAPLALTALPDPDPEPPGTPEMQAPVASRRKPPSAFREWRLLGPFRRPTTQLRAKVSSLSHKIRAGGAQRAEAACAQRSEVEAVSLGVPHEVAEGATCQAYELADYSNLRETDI
# Description: Compounds were incubated with 0.6 nM [3H]Prazosin for 60 min at 25° C. Non-specific binding was estimated in the presence of 10 μM phentolamine. Receptor proteins were filtered and washed, the filters were then counted to determine [3H]Prazosin specifically bound. […] Biochemical assay results are presented as the percent inhibition of specific binding in Table B1.
# [2] = target: T2, human recombinant adrenergic α2B receptor (Homo sapiens, UniProt P18089); experiment: Radioligand binding, adrenergic α2B ([3H]Rauwolscine); conditions: for inhibition at 0.1 µM / inhibition at 0.03 µM: read-out: Percentage inhibition of ligand binding, Adrenergic α2B; for inhibition at 0.03 µM: compound at 0.03 μM
# T2 construct: expressed in transfected cells; host or cells: CHO-K1
# T2 sequence (P18089 1-450): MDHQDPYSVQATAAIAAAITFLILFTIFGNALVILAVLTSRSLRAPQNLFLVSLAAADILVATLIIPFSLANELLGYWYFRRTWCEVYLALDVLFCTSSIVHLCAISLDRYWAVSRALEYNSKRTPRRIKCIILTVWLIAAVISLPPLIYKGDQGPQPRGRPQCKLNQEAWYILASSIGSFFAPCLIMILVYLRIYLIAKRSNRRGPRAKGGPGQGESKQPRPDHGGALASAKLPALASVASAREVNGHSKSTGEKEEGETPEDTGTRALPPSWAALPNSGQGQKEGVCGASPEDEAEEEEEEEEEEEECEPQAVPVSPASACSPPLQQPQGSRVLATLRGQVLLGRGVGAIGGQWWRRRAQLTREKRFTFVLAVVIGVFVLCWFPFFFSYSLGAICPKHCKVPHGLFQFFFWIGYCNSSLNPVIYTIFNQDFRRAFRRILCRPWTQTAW
# Method in brief: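 Assay used CHO-K1-expressed human α2B receptor in Tris-HCl pH 7.4 buffer with MgCl2, EDTA and BSA; 60 min incubation at 25 °C.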
# [3] = target: T3, rat adrenergic α1B receptor (Rattus norvegicus, UniProt P15823); experiment: Radioligand binding, adrenergic α1B ([3H]Prazosin)
# T3 construct: rat adrenergic α1B receptor obtained from Wistar Rat liver; from tissue; host or cells: Wistar rat liver
# T3 sequence (P15823 1-515): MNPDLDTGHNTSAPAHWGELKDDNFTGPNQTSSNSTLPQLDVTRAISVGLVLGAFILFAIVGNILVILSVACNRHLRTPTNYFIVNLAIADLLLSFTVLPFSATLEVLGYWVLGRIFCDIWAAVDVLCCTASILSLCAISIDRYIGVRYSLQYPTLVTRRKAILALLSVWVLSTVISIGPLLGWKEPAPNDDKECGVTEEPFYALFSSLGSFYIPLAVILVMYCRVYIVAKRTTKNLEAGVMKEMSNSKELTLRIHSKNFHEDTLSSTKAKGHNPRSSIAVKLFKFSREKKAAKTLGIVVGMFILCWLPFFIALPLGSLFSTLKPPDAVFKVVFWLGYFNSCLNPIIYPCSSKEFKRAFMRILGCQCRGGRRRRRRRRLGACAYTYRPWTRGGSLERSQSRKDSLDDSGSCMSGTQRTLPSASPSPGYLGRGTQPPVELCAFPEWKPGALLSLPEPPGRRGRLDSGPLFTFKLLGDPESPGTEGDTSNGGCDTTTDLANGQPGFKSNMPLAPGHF
# Method in brief: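 Filter binding with Wistar rat liver α1B preparation: test compound plus 0.25 nM [3H]prazosin, 1 h at 25° C in modified Tris-HCl buffer pH 7.4.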
# [4] = target: T4, human recombinant adrenergic α2A receptor (Homo sapiens, UniProt P08913); experiment: Radioligand binding, adrenergic α2A ([3H]MK-912)
# T4 construct: expressed in transfected cells; host or cells: insect Sf9 cells
# T4 sequence (P08913 1-465): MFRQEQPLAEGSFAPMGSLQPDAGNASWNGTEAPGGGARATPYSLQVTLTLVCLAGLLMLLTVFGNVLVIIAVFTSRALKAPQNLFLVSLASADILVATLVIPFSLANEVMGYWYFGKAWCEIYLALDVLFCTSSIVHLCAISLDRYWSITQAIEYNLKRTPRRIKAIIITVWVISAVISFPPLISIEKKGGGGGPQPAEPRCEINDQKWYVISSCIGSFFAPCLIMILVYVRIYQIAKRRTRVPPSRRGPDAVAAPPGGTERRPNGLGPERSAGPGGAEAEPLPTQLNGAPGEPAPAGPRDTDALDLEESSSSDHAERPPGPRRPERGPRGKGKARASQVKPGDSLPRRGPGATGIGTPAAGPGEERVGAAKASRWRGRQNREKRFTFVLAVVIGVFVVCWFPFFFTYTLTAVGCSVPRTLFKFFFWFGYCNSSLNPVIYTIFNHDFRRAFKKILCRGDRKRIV
# Method in brief: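 Sf9-expressed receptor was incubated with compound for 60 min at 25 °C in modified Tris-HCl buffer, pH 7.4. Nonspecific binding was taken as that remaining with 10 μM WB-4101.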
# [5] = 0.1 μM compound, read-out: Percentage inhibition of ligand binding, Adrenergic α1B
# [6] = 0.1 μM compound, read-out: Percentage inhibition of ligand binding, Adrenergic α2A
# [7] = 0.1 μM compound, read-out: Percentage inhibition of ligand binding, Adrenergic α1D
# [8] = compound at 0.1 μM, [3H]Prazosin, repeat assays, each datapoint shown, read-out: Percentage inhibition of ligand binding, Adrenergic α1D
# [9] = [3H]Rauwolscine, repeat assays, each datapoint shown
# [10] = compound at 0.1 μM, [3H]Rauwolscine, repeat assays, each datapoint shown
# [11] = compound at 0.1 μM, [3H]Prazosin, repeat assays, each datapoint shown, 0.1 µM
# [12] = compound at 0.1 μM, [3H]Prazosin, repeat assays, each datapoint shown, read-out: Percentage inhibition of ligand binding, Adrenergic α1B
smiles,measurement,setting,value
"CC(Cn1c2c(c3ccccc31)CN(C)CC2)c1ccc(F)cc1 (single isomer, unassigned) [272a]","Percentage inhibition of ligand binding, Adrenergic α1D",[1]; 0.1 μM compound,12%
same,"Percentage inhibition of ligand binding, Adrenergic α2B",[2]; 0.1 μM compound,−10%
same,inhibition at 0.1 µM,[3]; [5],27%
same,"Percentage inhibition of ligand binding, Adrenergic α2A","[4]; 0.1 μM compound, 0.1 µM",33%
"CC(Cn1c2c(c3ccccc31)CN(C)CC2)c1ccc(F)cc1 (single isomer, unassigned) [272b]","Percentage inhibition of ligand binding, Adrenergic α1D",[1]; 0.1 μM compound,36%
same,"Percentage inhibition of ligand binding, Adrenergic α1B","[3]; 0.1 μM compound, 0.1 µM",30%
same,"Percentage inhibition of ligand binding, Adrenergic α2A","[4]; 0.1 μM compound, 0.1 µM",68%
"Cc1ccc2c(c1)c1c(n2CC(C)c2ccc(F)cc2)CCN(C)C1 (single isomer, unassigned) [288b]","Percentage inhibition of ligand binding, Adrenergic α1D",[1]; 0.1 μM compound,17%
same,"Percentage inhibition of ligand binding, Adrenergic α1B",[3]; 0.1 μM compound,39%
same,"Percentage inhibition of ligand binding, Adrenergic α2A",[4]; 0.1 μM compound,67%
"Cc1ccc2c(c1)c1c(n2CC(C)c2ccc(C)nc2)CCN(C)C1 (single isomer, unassigned) [289a]","Percentage inhibition of ligand binding, Adrenergic α1D",[1]; 0.1 μM compound,57%
same,"Percentage inhibition of ligand binding, Adrenergic α1B","[3]; 0.1 μM compound, 0.1 µM",51%
same,inhibition at 0.1 µM,[4]; [6],60%
"Cc1ccc2c(c1)c1c(n2CC(C)c2ccc(C)nc2)CCN(C)C1 (single isomer, unassigned) [289b]","Percentage inhibition of ligand binding, Adrenergic α1D",[1]; 0.1 μM compound,−2%
same,"Percentage inhibition of ligand binding, Adrenergic α2B",[2]; 0.1 μM compound,54%
same,"Percentage inhibition of ligand binding, Adrenergic α1B","[3]; 0.1 μM compound, 0.1 µM",12%
same,"Percentage inhibition of ligand binding, Adrenergic α2A","[4]; 0.1 μM compound, 0.1 µM",53%
COc1ccc(C(C)(O)Cn2c3c(c4cc(C)ccc42)CN(C)CC3)cc1 (centres unmarked) [254a],inhibition at 0.1 µM,[1]; [7],36%
same,inhibition at 0.1 µM,[2]; 0.1 μM compound,85%
same,inhibition at 0.1 µM,[3]; [5],75%
same,inhibition at 0.1 µM,[4]; [6],58%
COc1ccc(C(C)(O)Cn2c3c(c4cc(C)ccc42)CN(C)CC3)cc1 (centres unmarked) [254b],"Percentage inhibition of ligand binding, Adrenergic α1D",[1]; 0.1 μM compound,22%
same,"Percentage inhibition of ligand binding, Adrenergic α2B","[2]; 0.1 μM compound, 0.1 µM",79%
same,"Percentage inhibition of ligand binding, Adrenergic α1B","[3]; 0.1 μM compound, 0.1 µM",63%
same,"Percentage inhibition of ligand binding, Adrenergic α2A","[4]; 0.1 μM compound, 0.1 µM",57%
Cc1ccc(CCn2c3c(c4c(C)ccc(C)c42)CN(C)CC3)cn1 [II-18],inhibition at 0.1 µM,[1]; [7],-9%
same,inhibition at 0.1 µM,[2]; 0.1 μM compound,-15%
same,inhibition at 0.1 µM,[3]; [5],-7%
same,inhibition at 0.1 µM,[4]; [6],14%
Cc1cc(Br)c2c(c1)c1c(n2CCc2ccc(C)nc2)CCN(C)C1 [II-39],inhibition at 0.1 µM,[1]; [7],13%
same,inhibition at 0.1 µM,[2]; 0.1 μM compound,-14%
same,inhibition at 0.1 µM,[3]; [5],16%
same,inhibition at 0.1 µM,[4]; [6],27%
CN1CCc2c(n(CC(O)c3ccccc3F)c3ccc(Cl)cc23)C1 (centres unmarked) [II-48],inhibition at 0.1 µM,[1]; [7],8%
same,inhibition at 0.1 µM,[2]; 0.1 μM compound,0%
same,inhibition at 0.1 µM,[3]; [5],27%
same,inhibition at 0.1 µM,[4]; [6],26%
Cc1ccc(C(C)(O)Cn2c3c(c4cc(Cl)ccc42)CN(C)CC3)cc1 (centres unmarked) [II-56],inhibition at 0.1 µM,[1]; [7],11%
same,inhibition at 0.1 µM,[2]; 0.1 μM compound,78%
same,inhibition at 0.1 µM,[3]; [5],54%
same,inhibition at 0.1 µM,[4]; [6],31%
Cc1ccc2c(c1)c1c(n2CC(C)(O)c2ccncc2)CCN(C)C1 (centres unmarked) [compound 2],inhibition at 0.1 µM,[1]; [8],13%
same,inhibition at 0.03 µM,[2]; [9],75%
same,inhibition at 0.1 µM,[2]; [10],95%
same,"Percentage inhibition of ligand binding, Adrenergic α1B",[3]; [11],28%
same,inhibition at 0.1 µM,[3]; [12],27%
"Cc1ccc2c(c1)c1c(n2C2=C(c3cn[nH]c3)CCC2)CCN(C)C1 [compound 77, 5-(2-(1H-pyrazol-4-yl)cyclopent-1-enyl)-2,8-dimethyl-2,3,4,5-tetrahydro-1H-pyrido[4,3-b]indole]",inhibition at 0.1 µM,[1]; [8],10%
same,inhibition at 0.03 µM,[2]; [9],84%
same,inhibition at 0.1 µM,[2]; [10],91%
same,"Percentage inhibition of ligand binding, Adrenergic α1B",[3]; [11],6%
same,inhibition at 0.1 µM,[3]; [12],5%
C/C(=C\n1c2c(c3cc(C)cnc31)CN(C)CC2)c1ccc(C)nc1 [compound 78],inhibition at 0.1 µM,[1]; [8],22%
same,inhibition at 0.03 µM,[2]; [9],67%
same,inhibition at 0.1 µM,[2]; [10],87%
same,"Percentage inhibition of ligand binding, Adrenergic α1B",[3]; [11],12%
same,inhibition at 0.1 µM,[3]; [12],11%
Cc1ccc2c(c1)c1c(n2CCc2ccccc2)CCN(C)C1 [compound 200],inhibition at 0.1 µM,"[1]; read-out: Percentage inhibition of ligand binding, Adrenergic α1D (0.1 μM), compound at 0.1 μM, [3H]Prazosin, repeat datapoints each shown",69%
same,inhibition at 0.03 µM,"[3]; read-out: Percentage inhibition of ligand binding, Adrenergic α1B (0.03 μM), compound at 0.03 μM, [3H]Prazosin, repeat datapoints each shown",63%
same,inhibition at 0.1 µM,"[3]; read-out: Percentage inhibition of ligand binding, Adrenergic α1B (0.1 μM), compound at 0.1 μM, [3H]Prazosin, repeat datapoints each shown",83%
same,Ki,[4],1.63 nM and 3.21 nM
same,inhibition at 0.03 µM,"[4]; read-out: Percentage inhibition of ligand binding, Adrenergic α2A (0.03 μM), compound at 0.03 μM, [3H]MK-912, repeat datapoints each shown",81%
same,inhibition at 0.1 µM,"[4]; read-out: Percentage inhibition of ligand binding, Adrenergic α2A (0.1 μM), compound at 0.1 μM, [3H]MK-912, repeat datapoints each shown",92%
